# In PMC12392461, “Beyond Estrogenicity: A Comparative Assessment of Bisphenol A and Its Alternatives in In Vitro Assays Questions Safety of Replacements” (Environmental Science & Technology, 2025):
# pEC50: −log10 of the molar value. Where two headings read alike, the source gives them in different places.
# Columns and labels:
# [1] = 15 min
# ERα = conditions: cited from earlier work
# [2] = Octanol-water partition constant (log Kow) measurement, Sirius T3 potentiometric log P; format: physicochemical; conditions: experimental, this study
# Outline: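 UV-metric titration (pH 2–12) gives pKa; octanol/buffer potentiometric titration gives log Kow from pKa shift. Triplicate titrations averaged.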
# [3] = tested on: HEK293H, HEK293T, H4IIe, MCF7 and SH-SY5Y cells
# Outline: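 Cells seeded in 384-well plates, 24 h, then dosed with 11-step dilutions for 24 h at 37 °C. Viability from IncuCyte confluency before vs after exposure; retinoic-acid-differentiated SH-SY5Y by Nuclear Green/propidium iodide staining. IC10 derived; TR = IC10,baseline/IC10.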
# PPARγ = tested on: PPARγ; set-up: method as in Crosthwait et al. 2025; Sun et al. 2025; conditions: ref Crosthwait et al. 2025; Sun et al. 2025; cited from earlier work
# Tox21 assays [4] = experiment: Re-evaluated Tox21 data (Adamovsky et al.), REPBPA and SRbaseline; conditions: for SRbaseline: Specificity Ratio;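 as to all read-outs here: published Tox21 results reanalysed with a revised model predicting baseline toxicity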
# Source text: We also reanalyzed the Tox21 data of Adamovsky et al. with the updated baseline toxicity prediction model (Table S2).
# Tox21 assays [5] = conditions: cited from earlier work
# [6] = Tox21BLA, ref Adamovsky et al. 2024
# [7] = Tox21Luc, ref Adamovsky et al. 2024
structure (smiles),measurement,setting,value
"CCC(C)(c1ccc(O)cc1)c1ccc(O)cc1 [BPB, 4,4'-(Butane-2,2-diyl)diphenol]",% Loss,[1],12%
same,Cparent-Ratio Mean,[1],0.88
same,Cparent-Ratio Rep.1,[1],0.80
same,Cparent-Ratio Rep.1 %,[1],79.66%
same,Cparent-Ratio Rep.2,[1],0.96
same,Cparent-Ratio Rep.2 %,[1],96.18%
same,pEC50,"ERα; estrogen receptor from Atlantic cod (Gadus morhua), ref Goksøyr et al 2024",5.80
same,pEC50,ERα; ref Kojima et al 2019,7.13
same,pEC50,ERα; ref Pelch et al 2019,6.49
same,Efficacy %,ERα; ref Pelch et al 2019,115.70%
same,pEC50,ERα; ref Reiniger et Oehlmann 2024,5.77
same,Efficacy %,ERα; ref Reiniger et Oehlmann 2024,9.23E+01%
same,log Kow used,[2],3.72
same,"cytotoxicity,median REPBPA,IC10",[3]; median IC10 relative to BPA,1.93
same,"IC10,Median (M)",[3]; median cytotoxicity of all cell lines,3.62 × 10^–5 M
same,"IC10, median",[3]; median cytotoxicity over all cell lines,36.2 µM
same,PPARγ transactivation reported in the literature,PPARγ,No agonism was detected
same,REPBPA,"Tox21 assays [4]; ATG_NRF2_ARE_CIS_up, Relative Effect Potency",17.53
same,SRbaseline,Tox21 assays [4]; ATG_NRF2_ARE_CIS_up,112.9
same,REPBPA,"Tox21 assays [4]; TOX21_AR_LUC_MDAKB2_Antagonist_0,5nM_R1881, Relative Effect Potency",0.94
same,SRbaseline,"Tox21 assays [4]; TOX21_AR_LUC_MDAKB2_Antagonist_0,5nM_R1881",18.87
same,REPBPA,"Tox21 assays [4]; TOX21_CAR_Agonist, Relative Effect Potency",1.20
same,SRbaseline,Tox21 assays [4]; TOX21_CAR_Agonist,42.52
same,REPBPA,"Tox21 assays [4]; TOX21_CAR_Antagonist, Relative Effect Potency",7.88
same,SRbaseline,Tox21 assays [4]; TOX21_CAR_Antagonist,704.7
same,REPBPA,Tox21 assays [4]; [6],3.63E+00
same,REPBPA,Tox21 assays [4]; [7],1.63E+00
same,EC10,"Tox21 assays [5]; ATG_NRF2_ARE_CIS_up, re-evaluated Tox21 data, ref Adamovsky et al 2024",4.31e-07 M
same,EC10,"Tox21 assays [5]; TOX21_AR_LUC_MDAKB2_Antagonist_0,5nM_R1881, re-evaluated Tox21 data, ref Adamovsky et al 2024",2.58e-06 M
same,EC10,"Tox21 assays [5]; TOX21_CAR_Agonist, re-evaluated Tox21 data, ref Adamovsky et al 2024",1.15e-06 M
same,EC10,"Tox21 assays [5]; TOX21_CAR_Antagonist, re-evaluated Tox21 data, ref Adamovsky et al 2024",6.91e-08 M
same,EC10,Tox21 assays [5]; [6],1.63E-07
same,EC10,Tox21 assays [5]; [7],2.15E-08
